# Test results published in US20250281507A1, “METHODS OF TREATING NEPHROTIC SYNDROME” (The Research Institute at Nationwide Children's Hospital, priority 2021, published 2025).
# Values joined by “and” are separate entries in the source; they are usually repeats but may differ in a detail not shown here. Equal entries are not always repeated.
# Key:
# [1] = test system: children with NS; experiment: Renal survival, renal function, remission and prednisone taper on pioglitazone; format: in vivo, human
# Source text: (§1) In the following clinical studies, the efficacy and safety of adding pioglitazone to reduce proteinuria in children with NS was examined. All children with NS identified worldwide to have been treated with pioglitazone were included, with no patients excluded. Each patient had pioglitazone added to their other NS medications at the discretion of their treating pediatric nephrologist. All patient records were reviewed in a de-identified manner, with prior ethics committee approval at each institution. Data were analyzed based on defined time periods before and after the addition of pioglitazone. Patients were defined as having responded to pioglitazone (i.e., Responders) if their urine protein to creatinine ratio (UPCR, mg/mg) decreased from the period 0-1 month pre-pioglitazone to the period 0-1 month post-pioglitazone. Glomerular filtration rate estimation (eGFR) in patients <18 years was calculated using the revised Schwartz equation. In patients >18 years, eGFR was calculated as the mean of the revised Schwartz and CKD-EPI creatinine equations. Quantitative data, such as patient age, duration of NS, pioglitazone dosage, and outcomes of UPCR, TIS, and serum albumin, were summarized as means (standard errors of mean), while categorical data such as renal survival status were summarized as frequency (percent). Due to a small sample size, Responders and Non-responders were compared using Wilcoxon Rank Sum tests on quantitative variables and Fisher's exact tests on categorical variables. For both Responders and Non-responders, pre-pioglitazone to post-pioglitazone initiation changes in UPCR, TIS, and serum albumin levels were analyzed using Wilcoxon Signed Rank tests. Numbers of hospitalizations pre-pioglitazone and post-pioglitazone initiation were analyzed and compared using Poisson distributions. Statistical significance was assessed at both the 0.05 and 0.10 levels. All analyses were conducted using SPSS software ver. 26 (IBM, Armonk, NY, USA).
# [2] = test system: children with NS; experiment: Serum albumin before and after addition of pioglitazone; format: in vivo, human; conditions: for % S Alb increase (0-1 mo) / % S Alb increase (5-7 mo): vs 0-1 mo pre-PIO; for serum albumin increase, range / mean serum albumin: Responders; for mean serum albumin: pre 2.5 g/dL
# Source text: as §1
# [3] = Patient 1 (Responder), pre-PIO 2.5
# [4] = Patient 2 (Responder), pre-PIO 2.4
# [5] = Patient 3 (Responder), pre-PIO 1.7
# [6] = Patient 5 (Non-responder), pre-PIO 4.4
# [7] = Patient 6 (Responder), pre-PIO 4.5
# [8] = Patient 7 (Non-responder), pre-PIO 2.9
# [9] = Patient 8 (Responder), pre-PIO 1.2
# [10] = mean of 5 Responders, pre-PIO 2.46
compound,measurement,setting,value
CCc1ccc(CCOc2ccc(CC3SC(=O)NC3=O)cc2)nc1 (stereo not shown) [pioglitazone],"Renal Survival, % survival",[1]; 3 Non-responders,33.3%
same,"Renal Survival, % survival",[1]; 5 Responders,100%
same,Renal Survival,[1]; Patient 1 (Responder),yes
same,renal function,"[1]; Patient 1, during pioglitazone treatment",maintained normal renal function
same,Renal Survival,[1]; Patient 2 (Responder),yes
same,renal function,"[1]; Patient 2, during pioglitazone treatment",maintained normal renal function
same,PRED dose after taper,"[1]; Patient 2, orally QD, from 30 mg/d",5 mg
same,remission,"[1]; Patient 2, pioglitazone 15 mg orally QD for 16 weeks",achieved full remission
same,Renal Survival,[1]; Patient 3 (Responder),yes
same,Prednisone dose after decrease,"[1]; Patient 3, from 40 mg/d",20 mg/day
same,Renal Survival,"[1]; Patient 4 (Non-responder), cFSGS, AKI at presentation",no
same,renal function,"[1]; Patient 4, during pioglitazone treatment",renal function continued to worsen
same,Renal Survival,[1]; Patient 5 (Non-responder),yes
same,NS relapses,"[1]; Patient 5, on pioglitazone for 2.5 years",continued to have NS relapses
same,Renal Survival,[1]; Patient 6 (Responder),yes
same,serum creatinine,"[1]; Patient 6, on MMF and pioglitazone",0.90 mg/dL
same,Renal Survival,[1]; Patient 7 (Non-responder),no
same,renal function,"[1]; Patient 7, pre-pioglitazone eGFR 44 ml/min/1.73 m^2",remained stable during the 6 months of pioglitazone treatment
same,Renal Survival,[1]; Patient 8 (Responder),yes
same,renal function,"[1]; Patient 8, during pioglitazone treatment",renal function remained normal
same,remission,"[1]; Patient 8, following 5-7 months",remained in complete remission
same,PRED dose after taper,"[1]; Patient 8, from 25 mg/d",10 mg/day
same,Post-PIO S Alb (0-1 mo; g/dL),[2]; [3],2.9 g/dL
same,Post-PIO S Alb (5-7 mo; g/dL),[2]; [3],3.5 g/dL
same,% S Alb increase (0-1 mo),[2]; Patient 1 (Responder),16.0%
same,% S Alb increase (5-7 mo),[2]; Patient 1 (Responder),40.0%
same,Post-PIO S Alb (0-1 mo; g/dL),[2]; [4],3 g/dL
same,Post-PIO S Alb (5-7 mo; g/dL),[2]; [4],3.5 g/dL
same,% S Alb increase (0-1 mo),[2]; Patient 2 (Responder),25.0%
same,% S Alb increase (5-7 mo),[2]; Patient 2 (Responder),45.8%
same,Post-PIO S Alb (0-1 mo; g/dL),[2]; [5],2.3 g/dL
same,Post-PIO S Alb (5-7 mo; g/dL),[2]; [5],3.7 g/dL
same,% S Alb increase (0-1 mo),[2]; Patient 3 (Responder),35.3%
same,% S Alb increase (5-7 mo),[2]; Patient 3 (Responder),118%
same,Post-PIO S Alb (0-1 mo; g/dL),"[2]; Patient 4 (Non-responder), pre-PIO 1.6, increase attributed to declining kidney function",2.7 g/dL
same,% S Alb increase (0-1 mo),[2]; Patient 4 (Non-responder),68.8%
same,Post-PIO S Alb (0-1 mo; g/dL),[2]; [6],4.1 g/dL
same,Post-PIO S Alb (5-7 mo; g/dL),[2]; [6],4.3 g/dL
same,% S Alb increase (0-1 mo),[2]; Patient 5 (Non-responder),−6.82%
same,% S Alb increase (5-7 mo),[2]; Patient 5 (Non-responder),−2.27%
same,Post-PIO S Alb (0-1 mo; g/dL),[2]; [7],4.1 g/dL
same,Post-PIO S Alb (5-7 mo; g/dL),[2]; [7],4.4 g/dL
same,% S Alb increase (0-1 mo),[2]; Patient 6 (Responder),−8.89%
same,% S Alb increase (5-7 mo),[2]; Patient 6 (Responder),−2.22%
same,Post-PIO S Alb (0-1 mo; g/dL),[2]; [8],2.8 g/dL
same,Post-PIO S Alb (5-7 mo; g/dL),[2]; [8],3.1 g/dL
same,% S Alb increase (0-1 mo),[2]; Patient 7 (Non-responder),−3.45%
same,% S Alb increase (5-7 mo),[2]; Patient 7 (Non-responder),6.90%
same,Post-PIO S Alb (0-1 mo; g/dL),[2]; [9],3.1 g/dL
same,Post-PIO S Alb (5-7 mo; g/dL),[2]; [9],3.4 g/dL
same,% S Alb increase (0-1 mo),[2]; Patient 8 (Responder),158%
same,% S Alb increase (5-7 mo),[2]; Patient 8 (Responder),183%
same,"serum albumin increase, range",[2]; 0-1 month post-pioglitazone,−9-158%
same,mean serum albumin,[2]; 0-1 month post-pioglitazone,3.1 g/dL
same,"serum albumin increase, range",[2]; 5-7 months post-pioglitazone,−2-183%
same,mean serum albumin,[2]; 5-7 months post-pioglitazone,3.7 g/dL
same,"% S Alb increase (0-1 mo), Mean (SEM)",[2]; mean of 5 Responders,45% and 45.2%
same,"% S Alb increase (5-7 mo), Mean (SEM)",[2]; mean of 5 Responders,77% and 76.9%
same,"Post-PIO S Alb (0-1 mo; g/dL), Mean (SEM)",[2]; [10],3.08 g/dL
same,"Post-PIO S Alb (5-7 mo; g/dL), Mean (SEM)",[2]; [10],3.7 g/dL
same,"% S Alb increase (0-1 mo), Mean (SEM)",[2]; mean of Non-responders,19.5%
same,"Post-PIO S Alb (5-7 mo; g/dL), Mean (SEM)",[2]; mean of Non-responders (Patient 4 ESRD),3.7 g/dL
same,"% S Alb increase (5-7 mo), Mean (SEM)",[2]; mean of Non-responders (without Patient 4),2.31%
same,"Post-PIO S Alb (0-1 mo; g/dL), Mean (SEM)","[2]; mean of Non-responders, pre-PIO 2.97",3.2 g/dL
